What all share (type): cell-based, human
Assay [1] has as its system Jurkat cells. In words: FACS analysis of NST830 uptake by Jurkat cells induced to undergo apoptosis by anti-Fas antibody (PI co-staining). The settings on record: upper right quadrant. As to the method:
FIG. 7 Jurkat cells were induced to undergo apoptosis by anti-Fas Ab treatment as described for FIG. 3 above. Subsequently, cells were incubated with 50 μM of NST830 for 5 minutes, co-stained with PI and subjected to FACS analysis. In order to inhibit PLS in apoptotic cells, two approaches were used:
(i). Ca^2+-deprivation: apoptotic cells were incubated for 30 min at room temperature in the presence of BAPTA (20 μM) and EGTA (1 mM), and then treated with NST830 and PI as above.
(ii). PLS inhibition by rottlerin: prior to treatment with NST830 and PI, apoptotic cells were incubated for 40 min in the presence of 0.5 μM of rottlerin, and then submitted to FACS analysis.
Cultured Jurkat cells were induced to undergo apoptosis by anti-Fas antibody (0.1 μg/ml) for 2.5 hours, as described in Example 1. Subsequently, both control and apoptotic cells were incubated with 50 μM of NST830 for 5 minutes, and uptake was measured by FACS. Prior to FACS analysis, cells were also co-stained with PI. Induction of apoptosis was associated with the emergence of a large, distinct population of 64% of cells in the early stages of the apoptotic process, selectively binding NST830 and occupying the right lower quadrant of the plot. No substantial change was observed under these conditions in the percentage of cells in late apoptosis, that are unselectively permeable to PI and NST830. […]
On the technique in general: In flow cytometry, cells or beads pass a laser one at a time.

The test system of assay [2] is Jurkat cells. In words: FACS analysis of DDC uptake by Jurkat cells induced to undergo apoptosis by anti-Fas antibody (PI co-staining).
A short description of assay [3]: FACS analysis of DDC uptake by control and activated platelets. The settings on record: DDC 5 μM, 5 min. As to the method: (§1) FIG. 6: Control and activated platelets were co-incubated with DDC (at a final concentration of 5 μM under three different conditions: no further treatment; Ca^2+-deprivation due to incubation with BAPTA and EGTA; and restoration of Ca^2+ following re-addition of Ca^2+ and calcium-ionophore A23187. Platelets were then subjected to FACS analysis.
(§2) The selective binding of DDC to activated platelets was determined using flow cytometric (FACS) analysis. Platelet rich plasma was obtained from healthy volunteers. 10^9 fresh platelets were centrifuged (5 minutes, 380×g), washed and re-suspended in Tyrode's buffer (137 mM NaCl; 2.8 mM KCl; 1 mM MgCl2, 12 mM NaHCO3; 0.4 mM Na2HPO4; 5.5 mM D-glucose and 10 mM Hepes pH 7.4; 0.35% BSA). Control platelets were kept on ice.
(§3) For activation, 200 μl of washed platelets were incubated with the calcium ionophore A23187 in the presence of 5 mM of CaCl2, at room temperature. Following incubation, platelets were centrifuged (2 min., 10^4 rpm) and re-suspended in 1 ml of Tyrode's buffer. Activated platelets were subsequently incubated with 5 μM of DDC for 5 minutes at room temperature, under three different conditions: (i). without any further treatment; (ii). under conditions of Ca^2+-deprivation, induced by 20 μM of BAPTA and 1 mM of EGTA (for 30 min. at 4° C.); (iii). upon restoration of Ca^2+, wherein platelet intracellular Ca^2+ levels were replenished by addition of 1 mM of CaCl2 and 2 μM of the calcium ionophore A23187. Non-activated platelets served as control. Platelets were subjected to flow cytometric (FACS) analysis using Becton-Dickinson cell sorter and CellQuest software. Excitation was at 360 nm and emission was measured at 530 nm.

A further assay deals with activated platelets. Described as above. As to the method:
as §1, §2, §3

Entries after “also recorded” stand apart in the source; their conditions may differ.

In the case of `CN(C)c1cccc2c(S(=O)(=O)NC(CSSCC(NS(=O)(=O)c3cccc4c(N(C)C)cccc34)C(=O)O)C(=O)O)cccc12` (stereo not drawn) [DDC], the “NST830-binding, PI-permeable late apoptotic cells upon Ca2+-deprivation” value in the assay with Jurkat cells [1] (BAPTA + EGTA) is recorded as “unaffected”. For the same compound, the “NST830-binding, PI-permeable late apoptotic cells in the presence of rottlerin” value in the assay with Jurkat cells [1] (rottlerin 0.5 μM) is “no change was detected”. In the assay on Jurkat cells [2] (anti-Fas 3 h + Z-VAD-fmk 50 μM, DDC 50 μM 5 min), the “DDC binding by cells in early apoptosis with pan-caspase inhibitor” value is “abolished this DDC binding”. The “DDC binding by cells in early apoptosis (peak B)” value with Jurkat cells [2] (anti-Fas 3 h without Z-VAD-fmk, DDC 50 μM 5 min) was “marked DDC binding”. For the same compound, in the assay on Jurkat cells [2] (anti-Fas + Z-VAD-fmk 50 μM), the “DDC binding to cells in the late stages of apoptosis (peak C) with pan-caspase inhibitor” value is “no significant alterations”. The “DDC uptake (fluorescence intensity), control non-activated platelets” value in assay [3] is reported as “low levels of fluorescence intensity; also recorded: only minimal uptake of DDC”. Further, the “DDC uptake (fluorescence intensity), activated platelets under Ca2+-deprivation” value in the assay with activated platelets (BAPTA 20 μM + EGTA 1 mM, 30 min, 4° C.) was “markedly reduced DDC uptake; also recorded: uptake of DDC was inhibited”. The “DDC uptake (fluorescence intensity), activated platelets upon restoration of Ca2+” value in the assay on activated platelets (CaCl2 1 mM + A23187 2 μM after deprivation) was “completely restored; also recorded: fluorescence returned to the high values”. The “DDC uptake (fluorescence intensity), activated platelets” value in the assay with activated platelets (activated with A23187 + 5 mM CaCl2, DDC 5 μM, 5 min) is reported as “significant shift to higher fluorescence values; also recorded: marked enhancement of fluorescence as compared to controls; also recorded: marked shift to higher fluorescence levels; also recorded: marked shift to higher fluorescence intensity”.

The record behind these values is US20040141912A1, “Method for targeting chemical compounds to cells and pharmaceutical compositions used therein” (priority 2001, published 2004).
